# Data reported in US20240158418A1 (C4 Therapeutics, Inc., priority 2021, published 2024).
# What was measured:
# Format in all cases: cell-based
# EGFR L858R-T790M-C797S = biological target: T1, EGFR L858R-T790M-C797S (Homo sapiens, UniProt P00533, C797S/L858R/T790M); experiment: EGFR degradation, Total EGFR (L858R-specific) HTRF, NCI-H1975+CS; details: Table 9A; NCI-H1975+CS cells, 6 hours, Total EGFR HTRF; read-out: H1975+ CS EGFR DC50
# T1 construct: generated using CRISPR technology to introduce the additional C797S mutation by Horizon Discovery; host or cells: NCI-H1975+CS (CRISPR knock-in of C797S)
# From the text: NCI-H1975 (harboring EGFR heterozygous L858R-T790M mutations) and NCI-H3255 (harboring EGFR heterozygous L858R mutation) were purchased from ATCC and NCI, respectively. NCI-H1975+CS (harboring EGFR heterozygous L858R-T790M-C797S mutations) was generated using CRISPR technology to introduce the additional C797S mutation by Horizon Discovery. A431 (harboring EGFR wildtype) was purchased from ATCC. RPMI 1640 no-phenol red medium and fetal bovine serum (FBS) were purchased from Gibco (Grand Island, NY, USA). Cell culture flasks and 384-well microplates were acquired from VWR (Radnor, PA, USA). Phosphorylated (pY1068) EGFR and Total EGFR (using L858R-specific detection antibody and pan-EGFR antibody for EGFR mutant cell lines and EGFR wild-type cell lines, respectively) HTRF assay kits were purchased from Cisbio (Bedford, MA, USA).
# Degradation of EGFR protein containing L858R mutation or wild-type was determined based on quantification of FRET signal using a Total EGFR (L858R-specific or pan-EGFR detecting) HTRF assay kit. Phospho-EGFR (pEGFR) inhibition was determined based on quantification of FRET signal using a pY1068 EGFR HTRF assay kit. In separate assay plates, test compounds were added to the 384-well plate from a top concentration of 10 μM with 11 points, half log titration in duplicates. For each assay, 12.5 uL of cells suspended in assay media (RPMI 1640 no-phenol red medium+10% FBS) at cell densities indicated for each cell line in Table 8 below were dispensed using a multi-channel pipette to 384-well low volume white HTRF microplates containing a duplicate concentration range of test compounds and DMSO controls. The plates were kept at 37° C. with 5% CO2 for 6 hours and then incubated with either phospho EGFR or Total EGFR HTRF detection antibodies according to the cell line and EGFR mutant being assayed. Cells treated in the absence of the test compound were the negative control. Positive control was set by wells containing all reagents but no cells. FRET signal was acquired on EnVision™ Multilabel Reader (PerkinElmer, Santa Clara, CA, USA). Compound concentration that achieves 50% degradation and inhibition was reported as DC50 and IC50, respectively.
# EGFR L858R-T790M = biological target: T2, EGFR L858R-T790M (Homo sapiens, UniProt P00533, L858R/T790M); experiment: EGFR degradation, Total EGFR (L858R-specific) HTRF, NCI-H1975; details: Table 9A; NCI-H1975 cells, 6 hours, Total EGFR HTRF; read-out: H1975 EGFR DC50
# T2 construct: NCI-H1975 (harboring EGFR heterozygous L858R-T790M mutations); host or cells: NCI-H1975
# Summary of the method: (§1)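 HTRF read-outs: pY1068 phospho-EGFR for IC50; total EGFR (pan-EGFR in A431, L858R-specific in mutant lines) for DC50. Compounds were titrated 11 points, half-log, from 10 μM in duplicate onto cells in 10% FBS RPMI, incubated 6 h at 37°C.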
# EGFR L858R = EGFR L858R (Homo sapiens, UniProt P00533, L858R); experiment: EGFR degradation, Total EGFR (L858R-specific) HTRF, NCI-H3255; set-up: NCI-H3255 (harboring EGFR heterozygous L858R mutation); host or cells: NCI-H3255; details: Table 9A; NCI-H3255 cells, 6 hours, Total EGFR HTRF; read-out: H3255 EGFR DC50
# Summary of the method: as §1
# Chain of EGFR L858R (P00533 25-1210 L858R): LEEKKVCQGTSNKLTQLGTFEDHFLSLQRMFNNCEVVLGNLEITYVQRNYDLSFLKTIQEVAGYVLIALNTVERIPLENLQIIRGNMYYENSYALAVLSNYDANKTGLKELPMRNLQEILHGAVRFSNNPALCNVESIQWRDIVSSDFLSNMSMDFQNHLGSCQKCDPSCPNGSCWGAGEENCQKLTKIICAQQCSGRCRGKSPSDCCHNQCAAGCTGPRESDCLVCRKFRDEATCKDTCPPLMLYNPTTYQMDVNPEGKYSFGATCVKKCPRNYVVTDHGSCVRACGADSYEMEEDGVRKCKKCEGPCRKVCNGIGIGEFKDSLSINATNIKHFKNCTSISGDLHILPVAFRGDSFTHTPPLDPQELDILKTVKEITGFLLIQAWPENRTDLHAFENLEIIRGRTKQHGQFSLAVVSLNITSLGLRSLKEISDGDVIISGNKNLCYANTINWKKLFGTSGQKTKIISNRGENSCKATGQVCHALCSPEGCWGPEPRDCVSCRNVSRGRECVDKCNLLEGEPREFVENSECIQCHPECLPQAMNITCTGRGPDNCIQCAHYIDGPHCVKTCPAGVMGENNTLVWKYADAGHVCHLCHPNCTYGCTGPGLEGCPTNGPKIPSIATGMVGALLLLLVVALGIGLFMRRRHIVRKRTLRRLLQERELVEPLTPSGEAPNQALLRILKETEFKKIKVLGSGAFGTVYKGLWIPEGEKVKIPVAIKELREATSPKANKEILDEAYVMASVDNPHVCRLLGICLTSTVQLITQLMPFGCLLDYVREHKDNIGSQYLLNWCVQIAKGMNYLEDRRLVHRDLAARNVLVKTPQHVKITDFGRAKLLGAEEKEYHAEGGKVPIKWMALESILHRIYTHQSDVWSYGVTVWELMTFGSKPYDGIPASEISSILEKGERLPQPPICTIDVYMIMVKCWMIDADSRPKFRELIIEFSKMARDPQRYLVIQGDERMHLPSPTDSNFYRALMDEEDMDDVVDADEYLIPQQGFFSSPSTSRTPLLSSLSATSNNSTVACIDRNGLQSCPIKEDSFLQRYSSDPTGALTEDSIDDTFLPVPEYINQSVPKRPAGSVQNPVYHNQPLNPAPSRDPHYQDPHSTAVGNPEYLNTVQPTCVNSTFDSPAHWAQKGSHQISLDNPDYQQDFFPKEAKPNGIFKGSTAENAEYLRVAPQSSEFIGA
# T2 sequence (P00533 25-1210 T790M/L858R): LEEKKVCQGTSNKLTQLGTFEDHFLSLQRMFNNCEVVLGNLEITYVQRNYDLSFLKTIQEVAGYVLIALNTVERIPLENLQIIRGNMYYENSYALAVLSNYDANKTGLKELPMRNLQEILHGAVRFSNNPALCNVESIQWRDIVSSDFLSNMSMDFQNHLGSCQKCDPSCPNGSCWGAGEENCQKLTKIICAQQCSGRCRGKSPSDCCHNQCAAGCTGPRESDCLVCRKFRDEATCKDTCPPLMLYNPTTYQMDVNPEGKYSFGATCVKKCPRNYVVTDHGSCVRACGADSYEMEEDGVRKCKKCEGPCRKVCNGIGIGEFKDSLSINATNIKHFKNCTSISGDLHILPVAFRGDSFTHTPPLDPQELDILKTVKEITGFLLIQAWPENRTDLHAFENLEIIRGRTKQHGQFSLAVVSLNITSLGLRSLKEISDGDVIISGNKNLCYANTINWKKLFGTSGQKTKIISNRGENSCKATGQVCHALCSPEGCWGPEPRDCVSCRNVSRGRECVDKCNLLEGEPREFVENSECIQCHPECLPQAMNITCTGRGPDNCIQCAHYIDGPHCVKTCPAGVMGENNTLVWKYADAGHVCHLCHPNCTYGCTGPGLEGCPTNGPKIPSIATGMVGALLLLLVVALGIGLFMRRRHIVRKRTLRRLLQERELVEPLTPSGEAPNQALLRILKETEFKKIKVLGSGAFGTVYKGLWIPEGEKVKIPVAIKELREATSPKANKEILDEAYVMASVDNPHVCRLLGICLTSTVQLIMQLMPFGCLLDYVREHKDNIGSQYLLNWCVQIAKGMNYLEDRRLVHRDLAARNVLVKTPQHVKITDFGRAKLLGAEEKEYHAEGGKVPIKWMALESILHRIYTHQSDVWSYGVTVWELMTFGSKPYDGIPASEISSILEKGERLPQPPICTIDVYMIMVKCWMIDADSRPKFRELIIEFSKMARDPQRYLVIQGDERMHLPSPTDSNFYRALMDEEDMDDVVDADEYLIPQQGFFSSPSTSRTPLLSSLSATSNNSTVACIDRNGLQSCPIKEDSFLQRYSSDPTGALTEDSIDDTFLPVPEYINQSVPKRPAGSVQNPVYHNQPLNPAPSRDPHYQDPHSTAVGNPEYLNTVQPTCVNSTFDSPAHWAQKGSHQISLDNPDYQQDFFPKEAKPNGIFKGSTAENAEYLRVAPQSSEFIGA
# T1 sequence (P00533 25-1210 T790M/C797S/L858R): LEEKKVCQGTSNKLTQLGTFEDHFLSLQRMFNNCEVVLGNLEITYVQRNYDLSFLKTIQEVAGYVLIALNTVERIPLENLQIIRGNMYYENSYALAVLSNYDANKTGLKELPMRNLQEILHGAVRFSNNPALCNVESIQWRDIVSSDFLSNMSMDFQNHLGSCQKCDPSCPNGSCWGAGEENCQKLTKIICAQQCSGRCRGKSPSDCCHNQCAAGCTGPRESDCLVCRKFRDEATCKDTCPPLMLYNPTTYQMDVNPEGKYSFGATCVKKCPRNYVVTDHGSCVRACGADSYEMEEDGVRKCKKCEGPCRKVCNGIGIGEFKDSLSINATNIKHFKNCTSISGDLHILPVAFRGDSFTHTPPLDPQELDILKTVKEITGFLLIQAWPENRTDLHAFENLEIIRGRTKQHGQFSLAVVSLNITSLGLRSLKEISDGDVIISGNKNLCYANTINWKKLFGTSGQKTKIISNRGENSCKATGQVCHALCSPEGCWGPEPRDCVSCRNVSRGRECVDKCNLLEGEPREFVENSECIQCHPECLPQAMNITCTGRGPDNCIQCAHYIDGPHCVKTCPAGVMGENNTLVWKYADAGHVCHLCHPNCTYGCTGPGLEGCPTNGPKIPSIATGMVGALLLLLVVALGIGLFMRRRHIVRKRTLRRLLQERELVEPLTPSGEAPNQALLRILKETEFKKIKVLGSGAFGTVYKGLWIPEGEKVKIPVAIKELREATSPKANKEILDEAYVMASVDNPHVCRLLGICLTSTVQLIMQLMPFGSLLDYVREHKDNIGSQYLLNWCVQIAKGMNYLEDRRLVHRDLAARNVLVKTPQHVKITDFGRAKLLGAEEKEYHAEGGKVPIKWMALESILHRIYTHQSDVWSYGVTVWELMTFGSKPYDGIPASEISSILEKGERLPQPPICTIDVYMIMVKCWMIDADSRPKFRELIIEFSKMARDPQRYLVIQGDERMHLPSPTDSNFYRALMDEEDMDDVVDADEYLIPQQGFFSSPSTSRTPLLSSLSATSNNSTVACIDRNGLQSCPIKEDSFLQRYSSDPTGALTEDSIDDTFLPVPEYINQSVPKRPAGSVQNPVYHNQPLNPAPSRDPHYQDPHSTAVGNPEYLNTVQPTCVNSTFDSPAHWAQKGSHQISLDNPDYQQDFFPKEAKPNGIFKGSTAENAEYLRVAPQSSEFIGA
DC50 (EGFR L858R-T790M-C797S) [µM],DC50 (EGFR L858R-T790M) [µM],DC50 (EGFR L858R) [µM],SMILES
< 0.05,< 0.05,< 0.05,"O=C1CCC(Nc2ccc(C3CCN(CC(=O)N4CCN(c5ccc(-c6cc(F)c7c(c6)C(=O)N(C(C(=O)Nc6nccs6)c6ncn8c6CCC8)C7)cc5)CC4)CC3)cc2)C(=O)N1 (stereo not drawn) [Compound 55, 2-(6,7-dihydro-5H-pyrrolo[1,2-c]imidazol-1-yl)-2-[6-[4-[4-[2-[4-[4-[(2,6-dioxo-3-piperidyl)amino]phenyl]-1-piperidyl]acetyl]piperazin-1-yl]phenyl]-4-fluoro-1-oxo-isoindolin-2-yl]-N-thiazol-2-yl-acetamide]"
< 0.05,< 0.05,< 0.05,"O=C1CC[C@H](Nc2ccc(C3CCN(CC(=O)N4CCC(Oc5ccc(-c6cc(F)c7c(c6)C(=O)N(C(C(=O)Nc6nccs6)c6ncn8c6CCC8)C7)cc5)CC4)CC3)cc2)C(=O)N1 (stereo partly drawn) [Compound 32, 2-(6,7-dihydro-5H-pyrrolo[1,2-c]imidazol-1-yl)-2-[6-[4-[[1-[2-[4-[4-[[(3S)-2,6-dioxo-3-piperidyl]amino]phenyl]-1-piperidyl]acetyl]-4-piperidyl]oxy]phenyl]-4-fluoro-1-oxo-isoindolin-2-yl]-N-thiazol-2-yl-acetamide]"
< 0.05,< 0.05,< 0.05,"O=C1CCC(Nc2ccc(C3CCN(CC(=O)N4CC5(C4)CN(c4ccc(-c6cc(F)c7c(c6)C(=O)N(C(C(=O)Nc6nccs6)c6ncn8c6CCC8)C7)cc4)C5)CC3)cc2)C(=O)N1 (stereo not drawn) [Compound 47, 2-(6,7-dihydro-5H-pyrrolo[1,2-c]imidazol-1-yl)-2-[6-[4-[2-[2-[4-[4-[(2,6-dioxo-3-piperidyl)amino]phenyl]-1-piperidyl]acetyl]-2,6-diazaspiro[3.3]heptan-6-yl]phenyl]-4-fluoro-1-oxo-isoindolin-2-yl]-N-thiazol-2-yl-acetamide]"
< 0.05,0.05 to 0.15,< 0.05,"O=C1CCC(Nc2ccc(C3CCN(CC(=O)N4CCN(c5ccc(-c6cc(F)c7c(c6)C(=O)N(C(C(=O)Nc6ccccn6)c6ncn8c6CCC8)C7)cc5)CC4)CC3)c(F)c2)C(=O)N1 (stereo not drawn) [Compound 20, 2-(6,7-dihydro-5H-pyrrolo[1,2-c]imidazol-1-yl)-2-[6-[4-[4-[2-[4-[4-[(2,6-dioxo-3-piperidyl)amino]-2-fluoro-phenyl]-1-piperidyl]acetyl]piperazin-1-yl]phenyl]-4-fluoro-1-oxo-isoindolin-2-yl]-N-(2-pyridyl)acetamide]"
< 0.05,< 0.05,< 0.05,"O=C1CCC(Nc2ccc(C3CCN(CC(=O)N4CCN(c5ccc(-c6cc(F)c7c(c6)C(=O)N(C(C(=O)Nc6nccs6)c6ncn8c6CCC8)C7)cc5)CC4)CC3)c(C(F)F)c2)C(=O)N1 (stereo not drawn) [Compound 15, 2-[6-[4-[4-[2-[4-[2-(difluoromethyl)-4-[(2,6-dioxo-3-piperidyl)amino]phenyl]-1-piperidyl]acetyl]piperazin-1-yl]phenyl]-4-fluoro-1-oxo-isoindolin-2-yl]-2-(6,7-dihydro-5H-pyrrolo[1,2-c]imidazol-1-yl)-N-thiazol-2-yl-acetamide]"
< 0.05,< 0.05,< 0.05,"O=C1CCC(Nc2ccc(C3CCN(CC(=O)N4CCN(Cc5ccc(-c6cc(F)c7c(c6)C(=O)N(C(C(=O)Nc6nccs6)c6ncn8c6CCC8)C7)cc5)CC4)CC3)c(F)c2)C(=O)N1 (stereo not drawn) [Compound 57, 2-(6,7-dihydro-5H-pyrrolo[1,2-c]imidazol-1-yl)-2-[6-[4-[[4-[2-[4-[4-[(2,6-dioxo-3-piperidyl)amino]-2-fluoro-phenyl]-1-piperidyl]acetyl]piperazin-1-yl]methyl]phenyl]-4-fluoro-1-oxo-isoindolin-2-yl]-N-thiazol-2-yl-acetamide]"
< 0.05,< 0.05,< 0.05,"O=C1CCC(Nc2ccc(C3CCN(CC(=O)N4CCN(c5ccc(-c6cc(F)c7c(c6)C(=O)N(C(C(=O)Nc6nccs6)c6ncn8c6C[C@@H](F)C8)C7)cc5)CC4)CC3)cc2)C(=O)N1 (mixture of isomers) [Compound 43, (2RS)-2-[6-[4-[4-[2-[4-[4-[[(3RS)-2,6-Dioxo-3-piperidyl]amino]phenyl]-1-piperidyl]acetyl]piperazin-1-yl]phenyl]-4-fluoro-1-oxo-isoindolin-2-yl]-2-[(6R)-6-fluoro-6,7-dihydro-5H-pyrrolo[1,2-c]imidazol-1-yl]-N-thiazol-2-yl-acetamide]"

# More lines, now with the values behind:
SMILES,DC50 (EGFR L858R-T790M-C797S) [µM],DC50 (EGFR L858R-T790M) [µM],DC50 (EGFR L858R) [µM]
"O=C1CCC(Nc2ccc(C3CCN(CC(=O)N4CCC(Oc5ccc(-c6cc(F)c7c(c6)C(=O)N(C(C(=O)Nc6nccs6)c6ncn8c6CCC8)C7)cc5)CC4)CC3)cc2F)C(=O)N1 (stereo not drawn) [Compound 34, 2-(6,7-dihydro-5H-pyrrolo[1,2-c]imidazol-1-yl)-2-(6-(4-((1-(2-(4-(4-((2,6-dioxopiperidin-3-yl)amino)-3-fluorophenyl)piperidin-1-yl)acetyl)piperidin-4-yl)oxy)phenyl)-4-fluoro-1-oxoisoindolin-2-yl)-N-(thiazol-2-yl)acetamide]",< 0.05,0.05 to 0.15,< 0.05
"O=C1CC[C@H](Nc2ccc(C3CCN(CC(=O)N4CC5(C4)CN(c4ccc(-c6cc(F)c7c(c6)C(=O)N(C(C(=O)Nc6nccs6)c6ncn8c6CCC8)C7)cc4)C5)CC3)c(F)c2)C(=O)N1 (stereo partly drawn) [Compound 48, 2-(6,7-dihydro-5H-pyrrolo[1,2-c]imidazol-1-yl)-2-[6-[4-[2-[2-[4-[4-[[(3S)-2,6-dioxo-3-piperidyl]amino]-2-fluoro-phenyl]-1-piperidyl]acetyl]-2,6-diazaspiro[3.3]heptan-6-yl]phenyl]-4-fluoro-1-oxo-isoindolin-2-yl]-N-thiazol-2-yl-acetamide]",< 0.05,< 0.05,< 0.05
"O=C1CC[C@@H](Nc2ccc(C3CCN(CC(=O)N4CCC(Oc5ccc(-c6cc(F)c7c(c6)C(=O)N(C(C(=O)Nc6nccs6)c6ncn8c6CCC8)C7)cc5)CC4)CC3)cc2)C(=O)N1 (stereo partly drawn) [Compound 33, 2-(6,7-dihydro-5H-pyrrolo[1,2-c]imidazol-1-yl)-2-[6-[4-[[1-[2-[4-[4-[[(3R)-2,6-dioxo-3-piperidyl]amino]phenyl]-1-piperidyl]acetyl]-4-piperidyl]oxy]phenyl]-4-fluoro-1-oxo-isoindolin-2-yl]-N-thiazol-2-yl-acetamide]",< 0.05,< 0.05,< 0.05
"N#Cc1cc(NC2CCC(=O)NC2=O)ccc1C1CCN(CC(=O)N2CCC(c3ccc(-c4cc(F)c5c(c4)C(=O)N(C(C(=O)Nc4nccs4)c4ncn6c4CCC6)C5)cc3)CC2)CC1 (stereo not drawn) [Compound 25, 2-(6-(4-(1-(2-(4-(2-cyano-4-((2,6-dioxopiperidin-3-yl)amino)phenyl)piperidin-1-yl)acetyl)piperidin-4-yl)phenyl)-4-fluoro-1-oxoisoindolin-2-yl)-2-(6,7-dihydro-5H-pyrrolo[1,2-c]imidazol-1-yl)-N-(thiazol-2-yl)acetamide]",< 0.05,< 0.05,< 0.05
"O=C1CCC(Nc2ccc(C3CCN(CC(=O)N4CCC(Oc5ccc(-c6cc(F)c7c(c6)C(=O)N(C(C(=O)Nc6nccs6)c6ncn8c6CCC8)C7)cc5)CC4)CC3)c(F)c2)C(=O)N1 (stereo not drawn) [Compound 35, 2-(6,7-dihydro-5H-pyrrolo[1,2-c]imidazol-1-yl)-2-(6-(4-((1-(2-(4-(4-((2,6-dioxopiperidin-3-yl)amino)-2-fluorophenyl)piperidin-1-yl)acetyl)piperidin-4-yl)oxy)phenyl)-4-fluoro-1-oxoisoindolin-2-yl)-N-(thiazol-2-yl)acetamide]",< 0.05,< 0.05,< 0.05
